Measurements from ChEMBL document CHEMBL1201862, “PubChem BioAssay data set” (2004).
Structures can show the parent of a compound that is named as a salt. Calls of active or inactive are those of the source.

Key:
[1] = molecular target: Voltage-dependent T-type calcium channel subunit alpha-1H (Homo sapiens, UniProt O95180); assay type: functional;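 also: channel activity triggered by adding a high calcium stimulation buffer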
[2] = THP-1 cell cytotoxicity, dose response, cytotoxicity control for non-replicating M. tuberculosis project (AID 489025); assay type: functional
[3] = cells; assay type: functional
[4] = test system: Vero; experiment: cells; assay type: functional; settings: Chlorocebus sabaeus
[5] = molecular target: T1, Heat shock factor protein 1 (Mus musculus, UniProt P38532); experiment: inhibition of MG132-induced HSE-luciferase signal, confirmation, cell-based, NIH3T3, luminescence, dose retest (AID 2382); assay type: functional;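 also: NIH3T3 fibroblasts with HSF1-driven luciferase reporter stressed by proteasome inhibitor MG132; luminescence from HSF1-driven luciferase expression after 8 hours of MG132 stress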
T1 sequence (P38532 whole entry): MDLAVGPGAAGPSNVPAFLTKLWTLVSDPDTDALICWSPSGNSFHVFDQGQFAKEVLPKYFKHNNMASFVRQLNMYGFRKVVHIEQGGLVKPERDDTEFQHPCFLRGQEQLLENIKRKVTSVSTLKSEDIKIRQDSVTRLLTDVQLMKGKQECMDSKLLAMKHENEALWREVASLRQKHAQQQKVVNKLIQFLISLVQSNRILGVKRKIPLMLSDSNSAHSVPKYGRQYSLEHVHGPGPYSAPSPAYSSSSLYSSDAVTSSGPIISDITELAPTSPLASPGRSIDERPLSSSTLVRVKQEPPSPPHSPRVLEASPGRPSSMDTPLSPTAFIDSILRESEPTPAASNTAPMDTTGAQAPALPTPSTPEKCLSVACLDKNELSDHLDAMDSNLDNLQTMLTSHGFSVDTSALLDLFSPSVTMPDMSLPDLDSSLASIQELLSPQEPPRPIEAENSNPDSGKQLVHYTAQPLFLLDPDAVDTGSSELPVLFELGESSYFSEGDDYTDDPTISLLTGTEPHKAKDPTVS

[6] = molecular target: T2, Microphthalmia-associated transcription factor (Homo sapiens, UniProt O75030); experiment: TRPM1 promoter luciferase signal decrease, dose response, MITF inhibitor project, cell-based, SK-MEL-5, cherry-picked, set 3 (AID 493073); assay type: functional
T2 sequence (O75030 whole entry): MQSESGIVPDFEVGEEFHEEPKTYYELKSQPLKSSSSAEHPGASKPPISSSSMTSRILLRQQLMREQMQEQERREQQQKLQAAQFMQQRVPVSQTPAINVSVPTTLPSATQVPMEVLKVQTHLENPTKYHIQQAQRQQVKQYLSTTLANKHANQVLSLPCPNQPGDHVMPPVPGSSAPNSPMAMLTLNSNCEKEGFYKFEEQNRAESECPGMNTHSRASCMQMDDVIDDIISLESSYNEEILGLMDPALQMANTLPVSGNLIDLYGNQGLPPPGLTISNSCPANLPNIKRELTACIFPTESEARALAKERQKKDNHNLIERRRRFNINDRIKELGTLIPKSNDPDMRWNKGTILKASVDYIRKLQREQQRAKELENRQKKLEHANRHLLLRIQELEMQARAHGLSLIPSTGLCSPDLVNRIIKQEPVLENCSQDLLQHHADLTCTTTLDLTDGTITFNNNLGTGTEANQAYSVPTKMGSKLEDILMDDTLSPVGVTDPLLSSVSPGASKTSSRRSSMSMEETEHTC

[7] = cytotoxicity in HEK-293T cells, dose response, cytotoxicity control for BCR NF-kB inhibitor project, luminescence, B-cell screen hits (AID 489021); assay type: functional, cell-based;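 also: HEK-293T cells carrying an NF-kB luciferase reporter; cells exposed to compound for about 14 hours before viability readout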
[8] = HEp-2 cell cytotoxicity, dose response, cytotoxicity control for RSV inhibitor project, HTS (AID 2410); assay type: functional; settings: human respiratory syncytial virus
[9] = test system: Vero; experiment: cells; assay type: functional, cell-based; settings: Chlorocebus sabaeus
[10] = cells
[11] = molecular target: T3, Epstein-Barr nuclear antigen 1 (Epstein-Barr virus (strain B95-8) (HHV-4) (Human herpesvirus 4), UniProt P03211); experiment: EBNA-1 inhibitors, dose response, biochemical, fluorescence polarization, 1536-well (AID 2381); parameters: species or system human gammaherpesvirus 4;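 also: fluorescence polarization of a Cy5 DNA probe bound by EBNA-1 protein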
T3 sequence (P03211 whole entry): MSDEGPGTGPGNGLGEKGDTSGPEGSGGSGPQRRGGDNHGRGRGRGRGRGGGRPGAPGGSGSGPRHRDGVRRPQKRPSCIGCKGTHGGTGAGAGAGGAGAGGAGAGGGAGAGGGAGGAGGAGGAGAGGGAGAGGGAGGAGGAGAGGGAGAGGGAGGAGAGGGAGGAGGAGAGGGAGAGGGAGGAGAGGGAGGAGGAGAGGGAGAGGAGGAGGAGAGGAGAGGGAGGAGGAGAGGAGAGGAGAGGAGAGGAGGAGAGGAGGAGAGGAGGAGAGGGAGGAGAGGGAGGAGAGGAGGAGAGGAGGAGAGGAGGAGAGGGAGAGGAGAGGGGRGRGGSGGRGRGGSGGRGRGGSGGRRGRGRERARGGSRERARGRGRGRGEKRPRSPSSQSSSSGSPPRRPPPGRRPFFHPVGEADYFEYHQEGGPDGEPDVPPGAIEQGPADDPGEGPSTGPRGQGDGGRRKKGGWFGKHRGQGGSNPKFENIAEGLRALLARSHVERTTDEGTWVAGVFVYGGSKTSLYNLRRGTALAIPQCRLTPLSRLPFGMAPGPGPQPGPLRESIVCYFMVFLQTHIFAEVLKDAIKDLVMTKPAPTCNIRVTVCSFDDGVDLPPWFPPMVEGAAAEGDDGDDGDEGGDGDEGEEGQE

[12] = molecular target: T4, Lytic switch protein BZLF1 (Epstein-Barr virus (strain B95-8) (HHV-4) (Human herpesvirus 4), UniProt P03206); experiment: EBV ZTA inhibitors, dose response, counter-screen for EBNA-1 inhibitor project, biochemical, fluorescence polarization, Epstein-Barr virus, 1536-well (AID 2377); parameters: species or system human gammaherpesvirus 4;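 also: fluorescence polarization of Cy5-labelled ZRE DNA probe bound by purified Zta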
T4 sequence (P03206 whole entry): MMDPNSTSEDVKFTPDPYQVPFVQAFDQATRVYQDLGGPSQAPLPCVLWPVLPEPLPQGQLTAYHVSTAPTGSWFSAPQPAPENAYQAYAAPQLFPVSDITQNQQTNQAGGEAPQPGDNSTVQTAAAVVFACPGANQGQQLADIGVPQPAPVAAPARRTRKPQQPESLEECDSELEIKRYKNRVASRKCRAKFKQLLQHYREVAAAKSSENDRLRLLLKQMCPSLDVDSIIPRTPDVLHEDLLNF

[13] = molecular target: T5, Replicative DNA helicase DnaB (Mycobacterium tuberculosis, UniProt P9WMR3); experiment: DnaB intein splicing inhibitors, dose response, biochemical, cell-free fluorescence (AID 449749); assay type: functional
T5 sequence (P9WMR3 whole entry): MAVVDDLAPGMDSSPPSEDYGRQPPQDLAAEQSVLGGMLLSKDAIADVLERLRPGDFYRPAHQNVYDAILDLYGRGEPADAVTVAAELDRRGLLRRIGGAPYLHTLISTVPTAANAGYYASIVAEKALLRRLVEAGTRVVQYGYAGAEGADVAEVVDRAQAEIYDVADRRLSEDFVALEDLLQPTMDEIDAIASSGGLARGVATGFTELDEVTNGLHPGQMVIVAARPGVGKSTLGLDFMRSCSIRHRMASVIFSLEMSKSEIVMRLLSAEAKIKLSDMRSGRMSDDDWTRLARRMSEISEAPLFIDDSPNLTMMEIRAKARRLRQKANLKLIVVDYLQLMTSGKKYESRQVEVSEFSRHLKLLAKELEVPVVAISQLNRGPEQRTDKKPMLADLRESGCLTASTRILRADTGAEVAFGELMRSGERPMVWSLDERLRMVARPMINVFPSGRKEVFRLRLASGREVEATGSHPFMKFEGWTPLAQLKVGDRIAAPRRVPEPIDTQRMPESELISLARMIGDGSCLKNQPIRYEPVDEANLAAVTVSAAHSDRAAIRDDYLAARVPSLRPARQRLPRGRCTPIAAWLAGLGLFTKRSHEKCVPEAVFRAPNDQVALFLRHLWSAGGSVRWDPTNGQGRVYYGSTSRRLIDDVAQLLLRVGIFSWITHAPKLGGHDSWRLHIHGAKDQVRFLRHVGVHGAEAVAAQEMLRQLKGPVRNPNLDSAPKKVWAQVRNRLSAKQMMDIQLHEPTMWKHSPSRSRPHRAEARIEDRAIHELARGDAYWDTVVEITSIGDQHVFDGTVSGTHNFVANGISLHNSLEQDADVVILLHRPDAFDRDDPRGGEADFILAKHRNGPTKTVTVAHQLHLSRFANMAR

[14] = molecular target: T6, Protein RecA (Mycobacterium tuberculosis, UniProt P9WHJ3); experiment: Fluorescence Cell-Free Homogeneous Dose Retest to Identify Inhibitors of RecA-Intein Splicing Activity. [Related pubchem assays (depositor defined):AID2097, AID2223, AID489010, AID492950]; assay type: functional
T6 sequence (P9WHJ3 whole entry): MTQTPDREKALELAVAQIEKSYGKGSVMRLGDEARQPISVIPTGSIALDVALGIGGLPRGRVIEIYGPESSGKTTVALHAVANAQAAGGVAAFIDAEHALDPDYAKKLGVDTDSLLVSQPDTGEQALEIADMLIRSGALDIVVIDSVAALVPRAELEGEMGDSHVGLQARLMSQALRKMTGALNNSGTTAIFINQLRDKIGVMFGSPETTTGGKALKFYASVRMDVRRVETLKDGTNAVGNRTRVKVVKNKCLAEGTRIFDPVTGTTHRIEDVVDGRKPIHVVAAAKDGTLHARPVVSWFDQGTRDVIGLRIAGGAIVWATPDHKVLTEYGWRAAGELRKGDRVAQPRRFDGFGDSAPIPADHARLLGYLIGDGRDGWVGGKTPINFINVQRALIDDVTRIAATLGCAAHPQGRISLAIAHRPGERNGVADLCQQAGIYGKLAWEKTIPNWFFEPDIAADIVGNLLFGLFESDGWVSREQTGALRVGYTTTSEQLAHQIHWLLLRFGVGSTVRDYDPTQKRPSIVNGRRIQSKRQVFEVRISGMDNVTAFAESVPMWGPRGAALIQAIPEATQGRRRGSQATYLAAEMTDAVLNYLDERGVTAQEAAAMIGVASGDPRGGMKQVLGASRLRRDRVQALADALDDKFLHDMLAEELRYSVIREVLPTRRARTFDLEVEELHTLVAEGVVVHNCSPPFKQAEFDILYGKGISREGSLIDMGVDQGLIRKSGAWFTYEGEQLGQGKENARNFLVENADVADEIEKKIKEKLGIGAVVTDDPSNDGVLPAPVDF

[15] = molecular target: Luciferin 4-monooxygenase (Photinus pyralis, UniProt P08659); experiment: Counter Screen for Luciferase-based Assay Positives. [Related pubchem assays: 620, 618, 411 ]
[16] = test system: HT-1080; experiment: cytotoxicity in HT1080 fibrosarcoma cells, cell-based, fluorescence readout (AID 620); assay type: functional; settings: Homo sapiens
[17] = molecular target: Eukaryotic translation initiation factor 4E (Mus musculus, UniProt P63073); experiment: eIF4E–eIF4G protein interaction inhibitors, dose response, biochemical, TR-FRET (AID 855); assay type: functional;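 also: potency for disrupting eIF4E binding to eIF4GI seen as loss of FRET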
Sequence of Eukaryotic translation initiation factor 4E (P63073 whole entry): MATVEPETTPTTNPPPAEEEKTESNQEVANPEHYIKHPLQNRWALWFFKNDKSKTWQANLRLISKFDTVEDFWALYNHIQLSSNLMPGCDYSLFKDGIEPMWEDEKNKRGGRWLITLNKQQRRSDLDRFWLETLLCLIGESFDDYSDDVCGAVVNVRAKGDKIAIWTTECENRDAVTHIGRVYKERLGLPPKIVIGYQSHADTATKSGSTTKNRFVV

Sequence of Voltage-dependent T-type calcium channel subunit alpha-1H (O95180 whole entry): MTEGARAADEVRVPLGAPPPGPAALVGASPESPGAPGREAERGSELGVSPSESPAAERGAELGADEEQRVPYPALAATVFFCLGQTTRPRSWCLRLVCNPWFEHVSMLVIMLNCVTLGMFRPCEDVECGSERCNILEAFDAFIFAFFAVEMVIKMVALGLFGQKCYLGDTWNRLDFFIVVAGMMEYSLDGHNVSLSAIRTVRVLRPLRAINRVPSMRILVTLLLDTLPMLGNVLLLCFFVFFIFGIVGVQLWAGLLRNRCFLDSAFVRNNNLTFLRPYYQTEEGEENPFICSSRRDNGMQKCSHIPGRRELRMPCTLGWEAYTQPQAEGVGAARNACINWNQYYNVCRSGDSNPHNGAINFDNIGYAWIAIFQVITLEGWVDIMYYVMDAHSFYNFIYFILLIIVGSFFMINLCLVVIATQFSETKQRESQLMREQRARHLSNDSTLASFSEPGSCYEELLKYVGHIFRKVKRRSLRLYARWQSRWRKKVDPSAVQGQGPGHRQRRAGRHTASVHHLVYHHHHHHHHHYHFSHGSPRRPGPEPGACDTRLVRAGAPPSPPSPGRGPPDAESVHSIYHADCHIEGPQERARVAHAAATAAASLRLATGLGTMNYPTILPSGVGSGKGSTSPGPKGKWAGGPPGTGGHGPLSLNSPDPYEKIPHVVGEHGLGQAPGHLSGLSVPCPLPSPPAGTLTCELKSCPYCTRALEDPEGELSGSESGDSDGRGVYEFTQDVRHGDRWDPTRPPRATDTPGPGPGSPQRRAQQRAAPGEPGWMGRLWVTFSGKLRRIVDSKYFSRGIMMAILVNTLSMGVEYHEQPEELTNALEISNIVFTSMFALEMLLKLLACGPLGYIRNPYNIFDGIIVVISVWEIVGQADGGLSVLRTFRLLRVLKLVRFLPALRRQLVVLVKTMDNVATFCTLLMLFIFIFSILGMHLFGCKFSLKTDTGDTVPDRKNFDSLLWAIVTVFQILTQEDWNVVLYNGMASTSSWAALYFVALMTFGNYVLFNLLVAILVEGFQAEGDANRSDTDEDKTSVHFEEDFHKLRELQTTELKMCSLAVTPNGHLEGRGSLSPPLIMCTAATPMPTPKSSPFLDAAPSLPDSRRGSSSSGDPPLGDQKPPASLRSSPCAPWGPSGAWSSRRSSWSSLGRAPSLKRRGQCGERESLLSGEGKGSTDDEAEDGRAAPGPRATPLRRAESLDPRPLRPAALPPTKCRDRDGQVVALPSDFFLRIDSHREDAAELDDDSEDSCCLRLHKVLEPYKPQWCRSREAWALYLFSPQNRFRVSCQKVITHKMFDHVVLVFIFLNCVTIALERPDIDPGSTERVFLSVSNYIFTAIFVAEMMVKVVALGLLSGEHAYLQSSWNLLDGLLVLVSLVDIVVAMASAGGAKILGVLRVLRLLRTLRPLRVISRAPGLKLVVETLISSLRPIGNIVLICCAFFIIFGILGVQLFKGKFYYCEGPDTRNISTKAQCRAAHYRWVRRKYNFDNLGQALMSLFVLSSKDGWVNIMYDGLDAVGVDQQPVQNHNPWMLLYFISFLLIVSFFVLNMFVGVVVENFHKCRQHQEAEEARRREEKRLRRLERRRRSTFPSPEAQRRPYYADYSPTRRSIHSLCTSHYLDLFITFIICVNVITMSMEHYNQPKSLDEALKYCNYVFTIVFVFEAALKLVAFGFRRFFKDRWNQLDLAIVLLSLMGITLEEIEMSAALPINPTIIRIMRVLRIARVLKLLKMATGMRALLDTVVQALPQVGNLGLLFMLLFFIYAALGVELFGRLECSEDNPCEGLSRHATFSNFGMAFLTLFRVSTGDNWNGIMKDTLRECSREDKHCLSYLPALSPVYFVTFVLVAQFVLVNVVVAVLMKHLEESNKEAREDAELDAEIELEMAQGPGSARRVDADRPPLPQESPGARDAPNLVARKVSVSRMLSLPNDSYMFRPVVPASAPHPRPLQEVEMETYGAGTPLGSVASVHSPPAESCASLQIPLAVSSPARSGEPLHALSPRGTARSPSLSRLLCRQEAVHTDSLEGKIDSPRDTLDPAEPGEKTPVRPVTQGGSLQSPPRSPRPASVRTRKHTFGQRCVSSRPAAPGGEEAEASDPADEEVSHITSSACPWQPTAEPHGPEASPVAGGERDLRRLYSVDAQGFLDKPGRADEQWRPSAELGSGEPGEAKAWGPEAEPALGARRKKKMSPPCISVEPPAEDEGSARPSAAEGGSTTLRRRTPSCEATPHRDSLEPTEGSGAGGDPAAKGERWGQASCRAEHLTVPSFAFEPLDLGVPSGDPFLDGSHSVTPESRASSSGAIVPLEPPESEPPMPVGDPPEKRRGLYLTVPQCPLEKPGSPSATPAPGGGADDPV
Sequence of Luciferin 4-monooxygenase (P08659 whole entry): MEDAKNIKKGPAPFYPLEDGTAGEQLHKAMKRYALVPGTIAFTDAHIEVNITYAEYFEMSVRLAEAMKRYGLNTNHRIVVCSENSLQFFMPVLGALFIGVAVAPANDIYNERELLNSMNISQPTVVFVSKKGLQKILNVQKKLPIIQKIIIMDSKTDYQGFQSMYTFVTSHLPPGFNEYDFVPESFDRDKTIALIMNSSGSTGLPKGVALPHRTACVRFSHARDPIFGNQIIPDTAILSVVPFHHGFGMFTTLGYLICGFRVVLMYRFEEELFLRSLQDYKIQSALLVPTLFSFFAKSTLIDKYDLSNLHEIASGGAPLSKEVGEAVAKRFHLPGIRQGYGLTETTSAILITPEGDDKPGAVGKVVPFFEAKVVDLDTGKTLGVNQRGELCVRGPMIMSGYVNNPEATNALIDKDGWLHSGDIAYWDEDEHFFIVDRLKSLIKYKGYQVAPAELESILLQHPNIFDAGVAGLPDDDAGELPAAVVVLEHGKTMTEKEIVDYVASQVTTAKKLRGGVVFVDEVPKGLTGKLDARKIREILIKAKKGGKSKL

## O=C(CSc1nnc(Cc2cccs2)n1-c1ccccc1)NCc1ccc2c(c1)OCO2
[1]
  EC50: 8.23 µM (active)

## O=C(Nc1ccc(F)cc1)c1cc(S(=O)(=O)Nc2ccc(F)cc2)cs1
[1]
  EC50: 2.88 µM (active)

## CN(C)CC/C=C1\c2cc(Cl)ccc2Sc2cc(F)c(F)cc21
[2]
  CC50: 38.8 µM (active)
[3]
  IC50: 18.2 µM (active)
[4]
  CC50: > 25 µM (active)

## C=CCOc1ccc(/C=C2\SC(=S)N(CCC(=O)O)C2=O)cc1
[5]
  EC50: 5.69 µM (active)
[6]
  AC50: 0.337 µM (active)
[7]
  IC50: > 80 µM (inactive)

## CCN1C(=O)c2cccc3c(S(=O)(=O)Nc4ccccn4)ccc1c23
[7]
  IC50: > 80 µM (inactive)

## CCOc1ccccc1CNC(=O)c1cc2oc3ccccc3c2n1C
[8]
  CC50: 18.7 µM (active)
[9]
  IC50: 4.91 µM (active)
[10]
  IC50: 9.25 µM (active)

## CSc1cccc(NC(=O)CSc2ccccc2)c1
[1]
  EC50: 9.9 µM (active)

## COc1ccc(-c2nnc(OCc3nc4ccccc4n3C)c3ccccc23)cc1
[8]
  CC50: 38.6 µM (active)
[10]
  IC50: 14.7 µM (active)

## COc1ccc(-c2cn3c(C)c(C(=O)NCc4ccc5c(c4)OCO5)sc3n2)cc1
[11]
  IC50: 4.84 µM (active)
[12]
  IC50: > 111 µM (not active)

## C/C(N)=C(/C#N)C(=O)CN1C(=O)NC(Cc2c[nH]c3ccccc23)C1=O (centres undefined)
[10]
  IC50: 1.91 µM (active)

## C#CCSc1nnc(-c2ccc(C)cc2)o1
[2]
  CC50: > 40 µM (active)
[3]
  IC50: 26.4 µM (active)

## COc1ccc(/C=C2\SC(=O)N(CCCC(=O)Nc3ccc(C(=O)O)cc3)C2=O)cc1OC
[7]
  IC50: > 80 µM (inactive)

## CC(=O)NC1=C(Nc2ccc(N(C)C)cc2)C(=O)c2ccccc2C1=O
[8]
  CC50: 15.3 µM (active)
[13]
  AC50: 34.5 µM (active)
[9]
  IC50: 24.7 µM (active)
[14]
  EC50: 46.6 µM (active)
[4]
  CC50: > 25 µM (active)
[10]
  IC50: 17.5 µM (active)

## Cc1ccc(-n2nc3ccc(N)cc3n2)cc1
[15]
  EC50: > 100 µM (not active)
[16]
  EC50: > 50 µM (not active)

## Cc1ccc(NC(=O)CSc2nnc(NC(=O)c3ccc(S(=O)(=O)N4CCOCC4)cc3)s2)cc1
[11]
  IC50: 15.7 µM (not active)
[12]
  IC50: > 111 µM (not active)

## O=C1NC(=O)C(CCc2ccncc2)(CCc2ccncc2)C(=O)N1Cc1ccccc1
[5]
  EC50: > 195 µM (not active)
[17]
  IC50: 50 µM (inactive)

## CCCCOc1cc(C(=O)NCCN(CC)CC)c2ccccc2n1 [DIBUCAINE HYDROCHLORIDE]
[17]
  IC50: 50 µM (inactive)
